Measurements: patent US4678787A, “4H-1-benzopyran-4-ones and their sulfur containing analogs” (Warner-Lambert Company, priority 1985, dated 1987)

Assays:
[1] = tested on: synthesis of dopamine; assay: Dopamine synthesis in rats treated with gamma-butyrolactone (GBL); format: in vivo, rat
[2] = tested on: exploratory locomotor activity in mice; assay: Inhibition of exploratory locomotor activity, mouse IP (McLean et al. screen); format: in vivo; conditions: read-out: Inh. Loc. Act. (mouse IP) (ED50)
Description: (§1) All compounds shown in the following Table 1 are active in laboratory tests that have been useful as predictors of antipsychotic efficacy (e.g., treatment of schizophrenia). Among these tests described by J. R. McLean, R. B. Parker, and L. L. Coughenour in Pharmacol. Biochem. Behav. 1978 (8) 97, is one which screens for compounds that decrease exploratory locomotor activity in mice and rats without causing ataxia. […] All known antipsychotic agents are active in this test. Our compounds are also active at doses as low as 0.35 mg/kg.

[3] = tested on: exploratory locomotor activity in rats; assay: Inhibition of exploratory locomotor activity, rat PO (McLean et al. screen); format: in vivo; conditions: read-out: Inh. Loc. Act. (rat PO) (ED50)
Description: as §1

SMILES | synthesis of dopamine [1] | ED50 [2] [mg/kg] | ED50 [3] [mg/kg]
O=c1ccoc2cc(OCCCN3CC=C(c4ccccc4)CC3)ccc12 [compound 1, 7-[3-(4-Phenyl-1,2,3,6-tetrahydro-1-pyridyl)propoxy]-4H-1-benzopyran-4-one] | inhibition of the synthesis of dopamine | 0.7 | 29.5
O=c1ccoc2cc(OCCCN3CCN(c4ccccc4)CC3)ccc12 [compound 2, 7-[3-(4-phenylpiperazinyl)propoxy]-4H-1-benzopyran-4-one] |  | 2.4 | 4.3
O=c1ccoc2cc(OCCCN3CCN(c4ccc(Cl)cc4)CC3)ccc12 [compound 3] |  | 11.1 | 18.6
Cc1cccc(N2CCN(CCCOc3ccc4c(=O)ccoc4c3)CC2)c1C [compound 4] |  | 11.2 | 13.2
O=c1ccoc2cc(OCCCN3CCN(c4cccc(Cl)c4)CC3)ccc12 [compound 5] |  | 7.7 | 8.5
COc1ccccc1N1CCN(CCCOc2ccc3c(=O)ccoc3c2)CC1 [compound 6] |  | 7.7 | > 30
O=c1ccoc2cc(OCCCN3CCC(c4ccccc4)CC3)ccc12 [compound 7, 7-[3-(4-Phenyl-1-piperidinyl)propoxy]-4H-1-benzopyran-4-one] |  | 14.8 | > 30
Cc1ccccc1N1CCN(CCCOc2ccc3c(=O)ccoc3c2)CC1 [compound 8] |  | 2 | 30
Cc1cccc(N2CCN(CCCOc3ccc4c(=O)ccoc4c3)CC2)c1 [compound 9] |  | 5.4 | 4.8
Cc1ccc(N2CCN(CCCOc3ccc4c(=O)ccoc4c3)CC2)cc1 [compound 10] |  | 6.1 | 22.3
O=c1ccoc2cc(OCCCN3CCN(c4ccc(F)cc4)CC3)ccc12 [compound 11] |  | 7 | 7.1
O=c1ccoc2cc(OCCCN3CCN(c4ccccn4)CC3)ccc12 [compound 12] |  | 5 to 6 | 1.7
O=c1ccoc2cc(OCCCN3CCN(c4ccccc4Cl)CC3)ccc12 [compound 13, 7-[3-(4-(2-Chlorophenyl)-1-piperazinyl)propoxy]-4H-1-benzopyran-4-one] |  | > 30 | 
O=c1ccoc2cc(OCCCN3CCN(c4ccc(Cl)c(Cl)c4)CC3)ccc12 [compound 14] |  | 14 to 15 | 17.8
COc1ccc(N2CCN(CCCOc3ccc4c(=O)ccoc4c3)CC2)cc1 [compound 15] |  | 30 | > 30
O=c1ccoc2cc(OCCCN3CCN(c4cccc(O)c4)CC3)ccc12 [compound 16] |  | > 30 | 
Cc1ccc(N2CCN(CCCOc3ccc4c(=O)ccoc4c3)CC2)cc1C [compound 17] |  | 3 | 7.3
O=c1ccoc2cccc(OCCCN3CCN(c4ccccc4)CC3)c12 [compound 18, 5-3-(4-phenyl-1-piperazinyl)propoxyl-4H-1-benzopyran-4-one] |  | 13.3 | 15.6
O=c1ccoc2ccc(OCCCCN3CCN(c4ccccc4)CC3)cc12 [compound 19, 6-[4-(4-phenyl-1-piperazinyl)butoxy]-4H-1-benzopyran-4-one] |  | 3 | 1.5
O=c1ccoc2cc(OCCCCN3CCN(c4ccccc4)CC3)ccc12 [compound 20, 7-[4-(4-Phenyl-1-piperazinyl)butoxy]-4H-1-benzopyran-4-one] |  | 0.35 | 1.9
O=c1ccoc2cc(OCCCN3CCN(c4ncccn4)CC3)ccc12 [compound 21] |  | 23.7 | > 30
